Experimental data: patent US20260132132A1, “3A,4,5,6-TETRAHYDRO-1 H-PYRAZOLO[3,4-C]PYRIDIN-7(7AH)-ONE DERIVATIVES AS FACTOR XIIA INHIBITORS” (KALVISTA PHARMACEUTICALS LIMITED, priority 2022, published 2026)

What was measured:
[1] = biological target: T1, Human Factor XIIa (hFXIIa) (Homo sapiens, UniProt P00748); experiment: Determination of Human Factor XIIa (hFXIIa) inhibition, fluorogenic substrate IC50 assay; type: biochemical; conditions: fluorogenic substrate H-DPro-Phe-Arg-AFC at Km, 25° C., read-out: Human FXIIa IC50
T1 construct: purchased Enzyme Research Laboratories
T1 sequence (P00748 373-615 limits assumed): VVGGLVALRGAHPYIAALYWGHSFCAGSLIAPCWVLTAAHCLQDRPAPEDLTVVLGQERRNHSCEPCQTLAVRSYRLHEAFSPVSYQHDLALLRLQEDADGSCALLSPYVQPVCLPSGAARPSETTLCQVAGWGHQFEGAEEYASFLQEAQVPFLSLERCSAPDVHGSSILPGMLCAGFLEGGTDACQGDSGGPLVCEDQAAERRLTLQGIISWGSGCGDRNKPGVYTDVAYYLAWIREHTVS
T1 sequence (P00748 20-372 partner limits assumed): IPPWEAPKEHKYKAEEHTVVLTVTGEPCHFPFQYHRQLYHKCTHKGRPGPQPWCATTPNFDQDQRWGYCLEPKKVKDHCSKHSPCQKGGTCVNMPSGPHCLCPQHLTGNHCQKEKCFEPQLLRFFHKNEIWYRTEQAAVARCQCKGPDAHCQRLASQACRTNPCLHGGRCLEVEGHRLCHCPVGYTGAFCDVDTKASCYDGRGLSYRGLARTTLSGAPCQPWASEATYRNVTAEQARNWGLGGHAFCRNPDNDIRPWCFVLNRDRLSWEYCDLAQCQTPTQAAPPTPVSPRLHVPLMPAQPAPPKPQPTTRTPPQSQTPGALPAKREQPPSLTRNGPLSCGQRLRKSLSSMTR
Method: Determination of Human Factor XIIa (hFXIIa) inhibition
The Km for the cleavage of the substrate by hFXIIa was determined by standard transformation of the Michaelis-Menten equation, with subsequent inhibition assays performed at substrate Km concentration.

FXa = FXa (Homo sapiens, UniProt P00742); experiment: Related protease inhibition: FXa, fluorogenic substrate; type: biochemical; conditions: fluorogenic substrate at Km, 25° C.; H1-H3 = % activity at 40 μM
Sequence of FXa (P00742 235-488 limits assumed): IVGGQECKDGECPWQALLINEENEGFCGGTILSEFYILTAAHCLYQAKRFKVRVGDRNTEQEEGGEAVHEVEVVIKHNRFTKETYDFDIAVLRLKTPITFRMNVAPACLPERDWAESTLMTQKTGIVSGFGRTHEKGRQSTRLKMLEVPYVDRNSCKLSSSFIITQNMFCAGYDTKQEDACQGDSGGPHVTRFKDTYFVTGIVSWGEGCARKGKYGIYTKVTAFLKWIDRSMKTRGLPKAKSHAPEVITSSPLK
Sequence of FXa (P00742 41-179 partner limits assumed): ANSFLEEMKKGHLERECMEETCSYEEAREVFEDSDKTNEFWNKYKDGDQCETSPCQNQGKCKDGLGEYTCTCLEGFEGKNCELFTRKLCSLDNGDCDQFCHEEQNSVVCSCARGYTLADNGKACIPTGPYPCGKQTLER
Method: Human serine protease enzyme Plasma Kallikrein, KLK1, FXa, Plasmin, Thrombin and Trypsin were assayed for enzymatic activity using an appropriate fluorogenic substrate at Km concentration, FXIa at fixed substrate concentration of 100 μM and various concentrations of the test compound.

| Compound | IC50 [1] [µM] | IC50 (FXa) [µM] |
| --- | --- | --- |
| CS(=O)(=O)CCN1CCc2ccc(N3CCc4c(C(=O)NCC5CC5)nn(-c5cccc(Cl)c5)c4C3=O)cc2C1 [Example 1176, 1-(3-chlorophenyl)-N-(cyclopropylmethyl)-6-(2-(2-(methylsulfonyl)ethyl)-1,2,3,4-tetrahydroisoquinolin-7-yl)-7-oxo-4,5,6,7-tetrahydro-1H-pyrazolo[3,4-c]pyridine-3-carboxamide] | 0.3 to 1 | > 40 |
| CN1C(=O)CCc2ccc(N3CCc4c(C(=O)NCC5CC5)nn(-c5cccc(Cl)c5)c4C3=O)cc21 [Example 1207, 1-(3-chlorophenyl)-N-(cyclopropylmethyl)-6-(1-methyl-2-oxo-1,2,3,4-tetrahydroquinolin-7-yl)-7-oxo-4,5,6,7-tetrahydro-1H-pyrazolo[3,4-c]pyridine-3-carboxamide] | 3 to 10 | > 40 |
| O=C(NCC1CC1)c1nn(-c2cccc(Cl)c2)c2c1CCN(c1ccc3c(c1)CN(C1COC1)CC3)C2=O [Example 1032, 1-(3-chlorophenyl)-N-(cyclopropylmethyl)-6-(2-(oxetan-3-yl)-1,2,3,4-tetrahydroisoquinolin-7-yl)-7-oxo-4,5,6,7-tetrahydro-1H-pyrazolo[3,4-c]pyridine-3-carboxamide] | 0.3 to 1 | > 40 |
| CN(C)C(=O)c1cccc(N2CCc3c(C(=O)NCC4CC4)nn(-c4cccc(Cl)c4)c3C2=O)c1 [Example 1195, 1-(3-Chlorophenyl)-N-(cyclopropylmethyl)-6-[3-(dimethylcarbamoyl)phenyl]-7-oxo-4,5-dihydropyrazolo[3,4-c]pyridine-3-carboxamide] | 3 to 10 | > 40 |
| CN1CCc2ccc(N3CCc4c(C(=O)NC5CCOCC5)nn(-c5cccc(Cl)c5)c4C3=O)cc2C1 [Example 1043, 1-(3-chlorophenyl)-6-(2-methyl-1,2,3,4-tetrahydroisoquinolin-7-yl)-7-oxo-N-(tetrahydro-2H-pyran-4-yl)-4,5,6,7-tetrahydro-1H-pyrazolo[3,4-c]pyridine-3-carboxamide] | 0.3 to 1 | 3 to 10 |
| COc1cncc(CNC(=O)c2nn(-c3cccc(Cl)c3)c3c2CCN(c2ccc4c(c2)CN(CCO)CC4)C3=O)c1 [Example 1141, 1-(3-chlorophenyl)-6-(2-(2-hydroxyethyl)-1,2,3,4-tetrahydroisoquinolin-7-yl)-N-((5-methoxypyridin-3-yl)methyl)-7-oxo-4,5,6,7-tetrahydro-1H-pyrazolo[3,4-c]pyridine-3-carboxamide] | 0.01 to 0.1 | 3 to 10 |
| O=C(NCc1cocn1)c1nn(-c2cccc(Cl)c2)c2c1CCN(c1ccc3c(c1)CN(CCO)CC3)C2=O [Example 1223, 1-(3-chlorophenyl)-6-(2-(2-hydroxyethyl)-1,2,3,4-tetrahydroisoquinolin-7-yl)-N-(oxazol-4-ylmethyl)-7-oxo-4,5,6,7-tetrahydro-1H-pyrazolo[3,4-c]pyridine-3-carboxamide] | 0.1 to 0.3 | 10 to 40 |
| CCNC(=O)c1nn(-c2cccc(Cl)c2)c2c1CCN(c1ccc3c(c1)CN(C)CC3)C2=O [Example 1014, 1-(3-chlorophenyl)-N-ethyl-6-(2-methyl-1,2,3,4-tetrahydroisoquinolin-7-yl)-7-oxo-4,5,6,7-tetrahydro-1H-pyrazolo[3,4-c]pyridine-3-carboxamide] | 0.3 to 1 | 10 to 40 |
| CCN1CCc2ccc(N3CCc4c(C(=O)NC5COCC5(C)C)nn(-c5cccc(Cl)c5)c4C3=O)cc2C1 (stereo not shown) [Example 1092, 1-(3-chlorophenyl)-N-(4,4-dimethyltetrahydrofuran-3-yl)-6-(2-ethyl-1,2,3,4-tetrahydroisoquinolin-7-yl)-7-oxo-4,5,6,7-tetrahydro-1H-pyrazolo[3,4-c]pyridine-3-carboxamide] | 0.1 to 0.3 | > 40 |

Next, values leading:

| IC50 [1] [µM] | IC50 (FXa) [µM] | Compound |
| --- | --- | --- |
| 1 to 3 | 10 to 40 | CN1CCc2ccc(N3CCc4c(C(=O)NC5(C(=O)O)CC5)nn(-c5cccc(Cl)c5)c4C3=O)cc2C1=O [Example 1361, 1-(1-(3-chlorophenyl)-6-(2-methyl-1-oxo-1,2,3,4-tetrahydroisoquinolin-7-yl)-7-oxo-4,5,6,7-tetrahydro-1H-pyrazolo[3,4-c]pyridine-3-carboxamido)cyclopropane-1-carboxylic acid] |
| 3 to 10 | > 40 | CN1CCc2ccc(N3CCc4c(C(=O)NCC5CC5)nn(-c5cc(Cl)cc(C#N)c5)c4C3=O)cc2C1=O [Example 2013, 1-(3-chloro-5-cyanophenyl)-N-(cyclopropylmethyl)-6-(2-methyl-1-oxo-1,2,3,4-tetrahydroisoquinolin-7-yl)-7-oxo-4,5,6,7-tetrahydro-1H-pyrazolo[3,4-c]pyridine-3-carboxamide] |
| 0.1 to 0.3 | > 40 | COc1cccnc1CNC(=O)c1nn(-c2cccc(Cl)c2)c2c1CCN(c1ccc3c(c1)C(=O)N(C)CC3)C2=O [Example 1233, 1-(3-chlorophenyl)-N-((3-methoxypyridin-2-yl)methyl)-6-(2-methyl-1-oxo-1,2,3,4-tetrahydroisoquinolin-7-yl)-7-oxo-4,5,6,7-tetrahydro-1H-pyrazolo[3,4-c]pyridine-3-carboxamide] |
| 0.3 to 1 | 10 to 40 | CN1CCc2ccc(N3CCc4c(C(=O)NCC(=O)O)nn(-c5cccc(Cl)c5)c4C3=O)cc2C1=O [Example 1341, (1-(3-chlorophenyl)-6-(2-methyl-1-oxo-1,2,3,4-tetrahydroisoquinolin-7-yl)-7-oxo-4,5,6,7-tetrahydro-1H-pyrazolo[3,4-c]pyridine-3-carbonyl)glycine] |
| 0.1 to 0.3 | > 40 | CN1CCc2ccc(N3CCc4c(C(=O)N[C@H](CO)c5ccccc5)nn(-c5cccc(Cl)c5)c4C3=O)cc2C1=O [Example 1307, (S)-1-(3-chlorophenyl)-N-(2-hydroxy-1-phenylethyl)-6-(2-methyl-1-oxo-1,2,3,4-tetrahydroisoquinolin-7-yl)-7-oxo-4,5,6,7-tetrahydro-1H-pyrazolo[3,4-c]pyridine-3-carboxamide] |
| 1 to 3 | > 40 | CCNC(=O)c1nn(-c2cccc(Cl)c2)c2c1CCN(c1cccc(-n3ccn(C)c3=O)c1)C2=O [Example 1399, 1-(3-chlorophenyl)-N-ethyl-6-(3-(3-methyl-2-oxo-2,3-dihydro-1H-imidazol-1-yl)phenyl)-7-oxo-4,5,6,7-tetrahydro-1H-pyrazolo[3,4-c]pyridine-3-carboxamide] |
| 0.3 to 1 | 3 to 10 | Cc1cc(CNC(=O)c2nn(-c3cccc(Cl)c3)c3c2CCN(c2ccc4c(c2)C(=O)N(CCO)[C@@H](C)CO4)C3=O)nn1C [Example 1379, (S)-1-(3-chlorophenyl)-N-((1,5-dimethyl-1H-pyrazol-3-yl)methyl)-6-(4-(2-hydroxyethyl)-3-methyl-5-oxo-2,3,4,5-tetrahydrobenzo[f][1,4]oxazepin-7-yl)-7-oxo-4,5,6,7-tetrahydro-1H-pyrazolo[3,4-c]pyridine-3-carboxamide] |
| 0.1 to 0.3 | > 40 | O=C(NCc1cc(C2CC2)n[nH]1)c1nn(-c2cccc(Cl)c2)c2c1CCN(c1cccc(CN3CCCCC3)c1)C2=O [Example 1237, 1-(3-chlorophenyl)-N-((3-cyclopropyl-1H-pyrazol-5-yl)methyl)-7-oxo-6-(3-(piperidin-1-ylmethyl)phenyl)-4,5,6,7-tetrahydro-1H-pyrazolo[3,4-c]pyridine-3-carboxamide] |
| 0.3 to 1 | > 40 | COCCN1CCc2ccc(N3CCc4c(C(=O)NCC5CC5)nn(-c5cccc(Cl)c5)c4C3=O)cc2C1=O [Example 1261, 1-(3-chlorophenyl)-N-(cyclopropylmethyl)-6-(2-(2-methoxyethyl)-1-oxo-1,2,3,4-tetrahydroisoquinolin-7-yl)-7-oxo-4,5,6,7-tetrahydro-1H-pyrazolo[3,4-c]pyridine-3-carboxamide] |
| 3 to 10 | > 40 | CCNC(=O)c1nn(-c2cccc(Cl)c2)c2c1CCN(c1ccc(OC)c(N3C(=O)CC4CC43)c1)C2=O (stereo not shown) [Example 1402, 1-(3-chlorophenyl)-N-ethyl-6-(4-methoxy-3-(3-oxo-2-azabicyclo[3.1.0]hexan-2-yl)phenyl)-7-oxo-4,5,6,7-tetrahydro-1H-pyrazolo[3,4-c]pyridine-3-carboxamide] |
| 3 to 10 | 10 to 40 | CCNC(=O)c1nn(-c2cc(Cl)ccc2F)c2c1CCN(c1ccc3c(c1)C(=O)N(C)CC3)C2=O [Example 2030, 1-(5-chloro-2-fluorophenyl)-N-ethyl-6-(2-methyl-1-oxo-1,2,3,4-tetrahydroisoquinolin-7-yl)-7-oxo-4,5,6,7-tetrahydro-1H-pyrazolo[3,4-c]pyridine-3-carboxamide] |
